# Laboratory results from PubChem BioAssay AID330 (DTP/NCI, 2004).
# Values joined by “and” are separate entries in the source; they are usually repeats but may differ in a detail not shown here. Identical values can stand only once. Toxic doses and inconclusive results are not listed.
# System: P388 leukemia ip, CD2F1 mice, survival T/C
# Test: NCI In Vivo Anticancer Drug Screen. Data for tumor model P388 Leukemia (intraperitoneal) in CD2F1 (CDF1) mice
# Details: endpoint: median survival time, higher = longer survival
# In short: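 Mice carrying the transplanted tumor received test compound or vehicle. Survival was recorded in each group, and the value is the treated-group measurement divided by that of the vehicle-treated control group.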
# [1] = dose: 60.0 mg/kg/injection, schedule: Q01DX005 (ip), vehicle: saline with Tween-80
# [2] = dose: 120.0 mg/kg/injection, schedule: Q01DX005 (ip), vehicle: saline with Tween-80
# [3] = dose: 240.0 mg/kg/injection, schedule: Q01DX005 (ip), vehicle: saline with Tween-80
# [4] = dose: 200.0 mg/kg/injection, schedule: Q04DX003 (ip), vehicle: saline with Tween-80
# [5] = dose: 100.0 mg/kg/injection, schedule: Q01DX001 (ip), vehicle: saline with Tween-80
# [6] = dose: 200.0 mg/kg/injection, schedule: Q01DX001 (ip), vehicle: saline with Tween-80
# [7] = dose: 50.0 mg/kg/injection, schedule: Q01DX005 (ip), vehicle: Klucel (hydroxypropylcellulose) (HPC)
# [8] = dose: 12.5 mg/kg/injection, schedule: Q01DX009 (ip), vehicle: saline
# [9] = dose: 25.0 mg/kg/injection, schedule: Q01DX009 (ip), vehicle: saline
# [10] = dose: 50.0 mg/kg/injection, schedule: Q01DX009 (ip), vehicle: saline with Tween-80
# [11] = dose: 50.0 mg/kg/injection, schedule: Q01DX005 (ip), vehicle: saline with Tween-80
# [12] = dose: 100.0 mg/kg/injection, schedule: Q01DX005 (ip), vehicle: saline with Tween-80
# [13] = dose: 200.0 mg/kg/injection, schedule: Q01DX005 (ip), vehicle: saline with Tween-80
# [14] = dose: 400.0 mg/kg/injection, schedule: Q01DX001 (ip), vehicle: saline with Tween-80
# [15] = dose: 12.5 mg/kg/injection, schedule: Q01DX005 (ip), vehicle: saline with Tween-80
# [16] = dose: 25.0 mg/kg/injection, schedule: Q01DX005 (ip), vehicle: saline with Tween-80
# [17] = dose: 12.5 mg/kg/injection, schedule: Q01DX009 (ip), vehicle: Klucel (hydroxypropylcellulose) (HPC)
# [18] = dose: 25.0 mg/kg/injection, schedule: Q01DX009 (ip), vehicle: Klucel (hydroxypropylcellulose) (HPC)
# [19] = dose: 50.0 mg/kg/injection, schedule: Q01DX009 (ip), vehicle: Klucel (hydroxypropylcellulose) (HPC)
# [20] = dose: 100.0 mg/kg/injection, schedule: Q01DX009 (ip), vehicle: Klucel (hydroxypropylcellulose) (HPC)
# [21] = dose: 50.0 mg/kg/injection, schedule: Q01DX009 (ip), vehicle: saline
# [22] = dose: 100.0 mg/kg/injection, schedule: Q04DX003 (ip), vehicle: saline with Tween-80
# [23] = dose: 400.0 mg/kg/injection, schedule: Q04DX003 (ip), vehicle: saline with Tween-80
smiles,measurement,setting,value
O=C1CCC(c2nc3ccccc3[nH]2)N1Cc1csc(-c2ccccc2)n1 (stereo not given),T/C,[1],98 % of control
same,T/C,[2],93 % of control
same,T/C,[3],88 % of control
Cc1ccc(S(=O)(=O)N(C)c2cc(Cl)c(C(=O)O)c(Cl)c2)cc1,T/C,"dose: 88.0 mg/kg/injection, schedule: Q04DX003 (ip), vehicle: saline with Tween-80",99 % of control
same,T/C,"dose: 133.0 mg/kg/injection, schedule: Q04DX003 (ip), vehicle: saline with Tween-80",100 % of control
same,T/C,[4],99 % of control
same,T/C,"dose: 300.0 mg/kg/injection, schedule: Q04DX003 (ip), vehicle: saline with Tween-80",100 % of control
CCSC(=O)N1CCN(C(=O)SCC)CC1,T/C,"dose: 12.5 mg/kg/injection, schedule: Q04DX003 (ip), vehicle: saline",100 % of control
same,T/C,"dose: 25.0 mg/kg/injection, schedule: Q04DX003 (ip), vehicle: saline",100 % of control
same,T/C,"dose: 50.0 mg/kg/injection, schedule: Q04DX003 (ip), vehicle: saline",101 % of control
same,T/C,"dose: 100.0 mg/kg/injection, schedule: Q04DX003 (ip), vehicle: saline",108 % of control
CC1=C(/C=C/C(C)=C/C=C/C(C)=C/C=C2/CCOC2=O)C(C)(C)CCC1,T/C,"dose: 50.0 mg/kg/injection, schedule: Q01DX001 (ip), vehicle: saline with Tween-80",96 % of control
same,T/C,[5],96 % of control
same,T/C,[6],100 % of control
O=c1[nH]c(=O)n(C2CC(O)C(CS)O2)cc1F (stereo not given),T/C,[7],115 % of control
same,T/C,"dose: 200.0 mg/kg/injection, schedule: Q01DX005 (ip), vehicle: Klucel (hydroxypropylcellulose) (HPC)",150 % of control and 159 % of control
same,T/C,"dose: 400.0 mg/kg/injection, schedule: Q01DX005 (ip), vehicle: Klucel (hydroxypropylcellulose) (HPC)",186 % of control
CCCCCCCC/C=C\CCCCCCCC(=O)NCCCN(C)C,T/C,[8],98 % of control
same,T/C,[9],91 % of control
same,T/C,[10],112 % of control
Cc1ccccc1Nc1ccc([N+](=O)[O-])c2nonc12,T/C,[11],103 % of control
same,T/C,[12],98 % of control
same,T/C,[13],92 % of control
CCOC(=O)c1cnn(CC(OCC)OCC)c1N,T/C,[5],102 % of control
same,T/C,[6],108 % of control
same,T/C,[14],109 % of control
Cc1cc[n+](C2=C(Nc3ccc(Cl)cc3C)C(=O)c3ccccc3C2=O)cc1,T/C,[15],109 % of control
same,T/C,[16],109 % of control
same,T/C,[11],119 % of control
same,T/C,[1],121 % of control
Clc1ccc(C2SC=Cc3ccccc32)cc1 (stereo not given),T/C,[17],105 % of control and 113 % of control
same,T/C,[18],105 % of control and 115 % of control
same,T/C,[19],104 % of control and 112 % of control
same,T/C,[20],116 % of control and 122 % of control
same,T/C,"dose: 200.0 mg/kg/injection, schedule: Q01DX009 (ip), vehicle: Klucel (hydroxypropylcellulose) (HPC)",122 % of control and 95 % of control
C/C(=N\NC(=S)N1CCCCCC1)c1nccs1,T/C,[15],98 % of control
same,T/C,[16],100 % of control
same,T/C,[11],102 % of control
CN(C)/C(N)=N\c1ncccn1,T/C,[8],94 % of control
same,T/C,[9],91 % of control
same,T/C,[21],91 % of control
same,T/C,"dose: 100.0 mg/kg/injection, schedule: Q01DX009 (ip), vehicle: saline",93 % of control
same,T/C,"dose: 200.0 mg/kg/injection, schedule: Q01DX009 (ip), vehicle: saline",90 % of control
C[Si](C)(C)N1CCOC1=O,T/C,[1],109 % of control
same,T/C,[2],103 % of control
same,T/C,[3],108 % of control
CC(=O)C(N)=O,T/C,"dose: 50.0 mg/kg/injection, schedule: Q01DX005 (ip), vehicle: saline",98 % of control
same,T/C,"dose: 100.0 mg/kg/injection, schedule: Q01DX005 (ip), vehicle: saline",100 % of control
same,T/C,"dose: 200.0 mg/kg/injection, schedule: Q01DX005 (ip), vehicle: saline",101 % of control
S=c1sc(-c2ccc(Cl)cc2)nn1CSc1nc2ccccc2[nH]1,T/C,[1],100 % of control
same,T/C,[2],98 % of control
same,T/C,[3],89 % of control
CCCn1c(O)c(C(=O)CC)sc1=S,T/C,"dose: 60.0 mg/kg/injection, schedule: Q01DX005 (ip), vehicle: Klucel (hydroxypropylcellulose) (HPC)",97 % of control
same,T/C,"dose: 120.0 mg/kg/injection, schedule: Q01DX005 (ip), vehicle: Klucel (hydroxypropylcellulose) (HPC)",99 % of control
CCC1OCC(C(Cl)CCl)O1 (stereo not given),T/C,[11],102 % of control
same,T/C,[12],111 % of control
same,T/C,"dose: 132.0 mg/kg/injection, schedule: Q01DX009 (ip), vehicle: saline with Tween-80",100 % of control
same,T/C,[13],103 % of control
same,T/C,"dose: 200.0 mg/kg/injection, schedule: Q01DX009 (ip), vehicle: saline with Tween-80",118 % of control
same,T/C,"dose: 300.0 mg/kg/injection, schedule: Q01DX009 (ip), vehicle: saline with Tween-80",118 % of control
CN(C)C(=S)SSC(=S)N(C)C,T/C,[17],119 % of control
same,T/C,[18],115 % of control
same,T/C,[19],101 % of control and 117 % of control
same,T/C,[20],118 % of control and 90 % of control
CCCCC(CC)C(=O)N1CCOCC1 (stereo not given),T/C,[22],100 % of control
same,T/C,[4],100 % of control
same,T/C,[23],100 % of control
CC/C(C=O)=C\NC(=O)Nc1ccccc1,T/C,[5],97 % of control
same,T/C,[6],101 % of control
same,T/C,[14],98 % of control
NC(=O)C1(Br)C=[N+](Cc2ccccc2)CCC1 (stereo not given),T/C,"dose: 60.0 mg/kg/injection, schedule: Q01DX005 (ip), vehicle: saline",103 % of control
same,T/C,"dose: 120.0 mg/kg/injection, schedule: Q01DX005 (ip), vehicle: saline",95 % of control
c1csc(CSc2ncnc3nc[nH]c23)c1,T/C,[22],100 % of control
same,T/C,[4],100 % of control
same,T/C,"dose: 264.0 mg/kg/injection, schedule: Q04DX003 (ip), vehicle: saline with Tween-80",100 % of control
same,T/C,[23],109 % of control
O=[N+]([O-])c1nccn1C1OC(CO)C(O)C1O (stereo not given),T/C,"dose: 6.25 mg/kg/injection, schedule: Q01DX009 (ip), vehicle: saline",98 % of control
same,T/C,[8],99 % of control
same,T/C,[9],104 % of control
same,T/C,[21],104 % of control
[O-][n+]1c(-c2ccccc2)c(Cl)c(-c2ccccc2)n1O,T/C,"dose: 1.5 mg/kg/injection, schedule: Q01DX005 (ip), vehicle: Klucel + Tween-80",99 % of control
same,T/C,"dose: 3.0 mg/kg/injection, schedule: Q01DX005 (ip), vehicle: Klucel + Tween-80",100 % of control
same,T/C,"dose: 6.0 mg/kg/injection, schedule: Q01DX005 (ip), vehicle: Klucel + Tween-80",96 % of control
same,T/C,"dose: 60.0 mg/kg/injection, schedule: Q01DX005 (ip), vehicle: Klucel + Tween-80",98 % of control
Clc1ccc(OCCBr)cc1,T/C,"dose: 50.0 mg/kg/injection, schedule: Q04DX003 (ip), vehicle: saline with Tween-80",105 % of control
same,T/C,[22],101 % of control
same,T/C,[4],105 % of control
same,T/C,[23],99 % of control
CCN(CC)CCNc1ccc(COC(=O)OC)c2sc3ccccc3c(=O)c12,T/C,"dose: 2.5 mg/kg/injection, schedule: Q01DX005 (ip), vehicle: saline with Tween-80",118 % of control
same,T/C,"dose: 5.0 mg/kg/injection, schedule: Q01DX005 (ip), vehicle: saline with Tween-80",124 % of control
same,T/C,"dose: 6.25 mg/kg/injection, schedule: Q01DX005 (ip), vehicle: saline with Tween-80",120 % of control
same,T/C,"dose: 10.0 mg/kg/injection, schedule: Q01DX005 (ip), vehicle: saline with Tween-80",124 % of control
same,T/C,[15],111 % of control
same,T/C,"dose: 20.0 mg/kg/injection, schedule: Q01DX005 (ip), vehicle: saline with Tween-80",122 % of control
C[C@@H]1C[C@H]2OC(=O)[C@@]3(C)CCC[C@@](C)([C@@H]23)[C@@]1(O)CCc1ccoc1,T/C,"dose: 12.5 mg/kg/injection, schedule: Q01DX005 (ip), vehicle: Klucel (hydroxypropylcellulose) (HPC)",108 % of control
same,T/C,"dose: 25.0 mg/kg/injection, schedule: Q01DX005 (ip), vehicle: Klucel (hydroxypropylcellulose) (HPC)",105 % of control
same,T/C,[7],106 % of control
same,T/C,"dose: 100.0 mg/kg/injection, schedule: Q01DX005 (ip), vehicle: Klucel (hydroxypropylcellulose) (HPC)",97 % of control
c1cnc2c(c1)Sc1ncccc1S2,T/C,[10],96 % of control
same,T/C,"dose: 100.0 mg/kg/injection, schedule: Q01DX009 (ip), vehicle: saline with Tween-80",92 % of control
